According to ChEMBL document CHEMBL3526037, “Evaluation of the relationship between sex, polymorphisms in CYP2C8 and CYP2C9, and pharmacokinetics of angiotensin receptor blockers” (Drug Metab Dispos, 2013):

Assays:
Assay type in all cases: ADME, organism-based
[1] = Tmax in men plasma treated with losartan at 50 mg by LC/MS/MS analysis; conditions: male, human
[2] = Cmax in human plasma expressing CYP2C8*4 allele carrier polymorphism treated with losartan at 50 mg by LC/MS/MS analysis; parameters: dose 50 mg
[3] = Cmax in women plasma treated with losartan at 50 mg by LC/MS/MS analysis; parameters: dose 50 mg; conditions: female, human
[4] = Half life in human plasma expressing CYP2C9*3 allele carrier polymorphism treated with losartan at 50 mg by LC/MS/MS analysis
[5] = Half life in human plasma expressing CYP2C8*1/*1 polymorphism treated with losartan at 50 mg by LC/MS/MS analysis
[6] = AUC in human plasma expressing CYP2C8*1/*1 polymorphism treated with losartan at 50 mg by LC/MS/MS analysis
[7] = Cmax in human plasma expressing CYP2C9*2 allele carrier polymorphism treated with losartan at 50 mg by LC/MS/MS analysis; parameters: dose 50 mg
[8] = Tmax in human plasma expressing CYP2C8*1/*1 polymorphism treated with losartan at 50 mg by LC/MS/MS analysis
[9] = Tmax in women plasma treated with losartan at 50 mg by LC/MS/MS analysis; conditions: female, human
[10] = Half life in human plasma expressing CYP2C8*4 allele carrier polymorphism treated with losartan at 50 mg by LC/MS/MS analysis
[11] = AUC in human plasma expressing CYP2C9*2 allele carrier polymorphism treated with losartan at 50 mg by LC/MS/MS analysis
[12] = Tmax in human plasma expressing CYP2C8*3 allele carrier polymorphism treated with losartan at 50 mg by LC/MS/MS analysis
[13] = AUC in human plasma expressing CYP2C8*3 allele carrier polymorphism treated with losartan at 50 mg by LC/MS/MS analysis
[14] = Tmax in human plasma expressing CYP2C9*1/*1 polymorphism treated with losartan at 50 mg by LC/MS/MS analysis
[15] = Half life in human plasma expressing CYP2C9*1/*1 polymorphism treated with losartan at 50 mg by LC/MS/MS analysis
[16] = Cmax in human plasma expressing CYP2C8*1/*1 polymorphism treated with losartan at 50 mg by LC/MS/MS analysis; parameters: dose 50 mg
[17] = AUC in human plasma expressing CYP2C9*1/*1 polymorphism treated with losartan at 50 mg by LC/MS/MS analysis
[18] = Cmax in human plasma expressing CYP2C9*1/*1 polymorphism treated with losartan at 50 mg by LC/MS/MS analysis; parameters: dose 50 mg
[19] = Cmax in men plasma treated with losartan at 50 mg by LC/MS/MS analysis; parameters: dose 50 mg; conditions: male, human
[20] = AUC in human plasma expressing CYP2C8*4 allele carrier polymorphism treated with losartan at 50 mg by LC/MS/MS analysis
[21] = AUC in human plasma expressing CYP2C9*3 allele carrier polymorphism treated with losartan at 50 mg by LC/MS/MS analysis
[22] = Half life in human plasma expressing CYP2C8*3 allele carrier polymorphism treated with losartan at 50 mg by LC/MS/MS analysis
[23] = Cmax in human plasma expressing CYP2C9*3 allele carrier polymorphism treated with losartan at 50 mg by LC/MS/MS analysis; parameters: dose 50 mg
[24] = AUC in women plasma treated with losartan at 50 mg by LC/MS/MS analysis; conditions: female, human
[25] = Half life in women plasma treated with losartan at 50 mg by LC/MS/MS analysis; conditions: female, human
[26] = Half life in men plasma treated with losartan at 50 mg by LC/MS/MS analysis; conditions: male, human
[27] = Tmax in human plasma expressing CYP2C9*3 allele carrier polymorphism treated with losartan at 50 mg by LC/MS/MS analysis
[28] = Cmax in human plasma expressing CYP2C8*3 allele carrier polymorphism treated with losartan at 50 mg by LC/MS/MS analysis; parameters: dose 50 mg
[29] = Half life in human plasma expressing CYP2C9*2 allele carrier polymorphism treated with losartan at 50 mg by LC/MS/MS analysis
[30] = Tmax in human plasma expressing CYP2C8*4 allele carrier polymorphism treated with losartan at 50 mg by LC/MS/MS analysis
[31] = Tmax in human plasma expressing CYP2C9*2 allele carrier polymorphism treated with losartan at 50 mg by LC/MS/MS analysis
[32] = AUC in men plasma treated with losartan at 50 mg by LC/MS/MS analysis; conditions: male, human
[33] = Cmax in men plasma at 25 to 32 mg by LC/MS/MS analysis; conditions: male, human
[34] = Half life in human plasma expressing CYP2C8*2 allele carrier polymorphism at 25 to 32 mg by LC/MS/MS analysis
[35] = Cmax in human plasma expressing CYP2C8*2 allele carrier polymorphism at 25 to 32 mg by LC/MS/MS analysis
[36] = Clearance in human plasma expressing CYP2C8*1/*1 polymorphism at 25 to 32 mg by LC/MS/MS analysis
[37] = Tmax in human plasma expressing CYP2C9*3 allele carrier polymorphism at 25 to 32 mg by LC/MS/MS analysis
[38] = Tmax in human plasma expressing CYP2C9*1/*1 polymorphism at 25 to 32 mg by LC/MS/MS analysis
[39] = Half life in human plasma expressing CYP2C8*1/*1 polymorphism at 25 to 32 mg by LC/MS/MS analysis
[40] = Cmax in human plasma expressing CYP2C8*1/*1 polymorphism at 25 to 32 mg by LC/MS/MS analysis
[41] = Cmax in human plasma expressing CYP2C9*2 allele carrier polymorphism at 25 to 32 mg by LC/MS/MS analysis
[42] = Clearance in human plasma expressing CYP2C9*2 allele carrier polymorphism at 25 to 32 mg by LC/MS/MS analysis
[43] = Tmax in human plasma expressing CYP2C8*2 allele carrier polymorphism at 25 to 32 mg by LC/MS/MS analysis
[44] = Cmax in human plasma expressing CYP2C8*4 allele carrier polymorphism at 25 to 32 mg by LC/MS/MS analysis
[45] = Cmax in human plasma expressing CYP2C9*3 allele carrier polymorphism at 25 to 32 mg by LC/MS/MS analysis
[46] = Half life in human plasma expressing CYP2C8*3 allele carrier polymorphism at 25 to 32 mg by LC/MS/MS analysis
[47] = Clearance in human plasma expressing CYP2C8*2 allele carrier polymorphism at 25 to 32 mg by LC/MS/MS analysis
[48] = AUC in human plasma expressing CYP2C9*3 allele carrier polymorphism at 25 to 32 mg by LC/MS/MS analysis
[49] = AUC in women plasma at 25 to 32 mg by LC/MS/MS analysis; conditions: female, human
[50] = AUC in human plasma expressing CYP2C9*2 allele carrier polymorphism at 25 to 32 mg by LC/MS/MS analysis
[51] = Tmax in human plasma expressing CYP2C8*3 allele carrier polymorphism at 25 to 32 mg by LC/MS/MS analysis
[52] = Half life in women plasma at 25 to 32 mg by LC/MS/MS analysis; conditions: female, human
[53] = Tmax in women plasma at 25 to 32 mg by LC/MS/MS analysis; conditions: female, human
[54] = Cmax in human plasma expressing CYP2C8*3 allele carrier polymorphism at 25 to 32 mg by LC/MS/MS analysis
[55] = Cmax in human plasma expressing CYP2C9*1/*1 polymorphism at 25 to 32 mg by LC/MS/MS analysis
[56] = AUC in human plasma expressing CYP2C8*1/*1 polymorphism at 25 to 32 mg by LC/MS/MS analysis
[57] = Half life in human plasma expressing CYP2C9*3 allele carrier polymorphism at 25 to 32 mg by LC/MS/MS analysis
[58] = Clearance in human plasma expressing CYP2C8*3 allele carrier polymorphism at 25 to 32 mg by LC/MS/MS analysis
[59] = Clearance in men plasma at 25 to 32 mg by LC/MS/MS analysis; conditions: male, human
[60] = Clearance in human plasma expressing CYP2C8*4 allele carrier polymorphism at 25 to 32 mg by LC/MS/MS analysis
[61] = Half life in human plasma expressing CYP2C9*1/*1 polymorphism at 25 to 32 mg by LC/MS/MS analysis
[62] = Cmax in women plasma at 25 to 32 mg by LC/MS/MS analysis; conditions: female, human
[63] = AUC in human plasma expressing CYP2C8*4 allele carrier polymorphism at 25 to 32 mg by LC/MS/MS analysis
[64] = AUC in human plasma expressing CYP2C8*3 allele carrier polymorphism at 25 to 32 mg by LC/MS/MS analysis
[65] = Half life in human plasma expressing CYP2C9*2 allele carrier polymorphism at 25 to 32 mg by LC/MS/MS analysis
[66] = AUC in human plasma expressing CYP2C8*2 allele carrier polymorphism at 25 to 32 mg by LC/MS/MS analysis
[67] = Half life in men plasma at 25 to 32 mg by LC/MS/MS analysis; conditions: male, human
[68] = Half life in human plasma expressing CYP2C8*4 allele carrier polymorphism at 25 to 32 mg by LC/MS/MS analysis
[69] = Clearance in women plasma at 25 to 32 mg by LC/MS/MS analysis; conditions: female, human
[70] = AUC in men plasma at 25 to 32 mg by LC/MS/MS analysis; conditions: male, human
[71] = Tmax in human plasma expressing CYP2C9*2 allele carrier polymorphism at 25 to 32 mg by LC/MS/MS analysis
[72] = Tmax in human plasma expressing CYP2C8*4 allele carrier polymorphism at 25 to 32 mg by LC/MS/MS analysis
[73] = AUC in human plasma expressing CYP2C9*1/*1 polymorphism at 25 to 32 mg by LC/MS/MS analysis
[74] = Tmax in men plasma at 25 to 32 mg by LC/MS/MS analysis; conditions: male, human
[75] = Tmax in human plasma expressing CYP2C8*1/*1 polymorphism at 25 to 32 mg by LC/MS/MS analysis
[76] = Clearance in human plasma expressing CYP2C9*1/*1 polymorphism at 25 to 32 mg by LC/MS/MS analysis
[77] = Clearance in human plasma expressing CYP2C9*3 allele carrier polymorphism at 25 to 32 mg by LC/MS/MS analysis

Compound: CCCCc1nc(Cl)c(C(=O)O)n1Cc1ccc(-c2ccccc2-c2nn[nH]n2)cc1 [CARBOXYLIC ACID METABOLITE]
- Tmax [1]: 3.7 h
- Cmax [2]: 382 ng/mL
- Cmax [3]: 301 ng/mL
- half-life [4]: 5.7 h
- half-life [5]: 4.8 h
- AUC [6]: 2330 ng·h/mL
- Cmax [7]: 224 ng/mL
- Tmax [8]: 3.9 h
- Tmax [9]: 3.7 h
- half-life [10]: 4.6 h
- AUC [11]: 1770 ng·h/mL
- Tmax [12]: 3.7 h
- AUC [13]: 1500 ng·h/mL
- Tmax [14]: 3.7 h
- half-life [15]: 4.6 h
- Cmax [16]: 249 ng/mL
- AUC [17]: 2140 ng·h/mL
- Cmax [18]: 292 ng/mL
- Cmax [19]: 209 ng/mL
- AUC [20]: 2270 ng·h/mL
- AUC [21]: 2860 ng·h/mL
- half-life [22]: 5.1 h
- Cmax [23]: 154 ng/mL
- AUC [24]: 2580 ng·h/mL
- half-life [25]: 4.8 h
- half-life [26]: 4.9 h
- Tmax [27]: 4.3 h
- Cmax [28]: 196 ng/mL
- half-life [29]: 4.9 h
- Tmax [30]: 2.8 h
- Tmax [31]: 3.5 h
- AUC [32]: 1810 ng·h/mL

Compound: CCOc1nc2cccc(C(=O)O)c2n1Cc1ccc(-c2ccccc2-c2nnn[nH]2)cc1
- Cmax [33]: 216 ng/mL
- half-life [34]: 10.7 h
- Cmax [35]: 289 ng/mL
- clearance [36]: 2.5 mL/min/kg
- Tmax [37]: 5 h
- Tmax [38]: 5.1 h
- half-life [39]: 11.7 h
- Cmax [40]: 242 ng/mL
- Cmax [41]: 217 ng/mL
- clearance [42]: 2.5 mL/min/kg
- Tmax [43]: 3.4 h
- Cmax [44]: 287 ng/mL
- Cmax [45]: 230 ng/mL
- half-life [46]: 12 h
- clearance [47]: 2.5 mL/min/kg
- AUC [48]: 3630 ng·h/mL
- AUC [49]: 3810 ng·h/mL
- AUC [50]: 3450 ng·h/mL
- Tmax [51]: 5.1 h
- half-life [52]: 12.1 h
- Tmax [53]: 4.9 h
- Cmax [54]: 214 ng/mL
- Cmax [55]: 258 ng/mL
- AUC [56]: 3510 ng·h/mL
- half-life [57]: 12.1 h
- clearance [58]: 2.67 mL/min/kg
- clearance [59]: 2.33 mL/min/kg
- clearance [60]: 2.17 mL/min/kg
- half-life [61]: 10.9 h
- Cmax [62]: 260 ng/mL
- AUC [63]: 4130 ng·h/mL
- AUC [64]: 3450 ng·h/mL
- half-life [65]: 12.8 h
- AUC [66]: 3580 ng·h/mL
- half-life [67]: 11.3 h
- half-life [68]: 11.2 h
- clearance [69]: 2.5 mL/min/kg
- AUC [70]: 3260 ng·h/mL
- Tmax [71]: 4.8 h
- Tmax [72]: 4.1 h
- AUC [73]: 3590 ng·h/mL
- Tmax [74]: 5.1 h
- Tmax [75]: 5.2 h
- clearance [76]: 2.33 mL/min/kg
- clearance [77]: 2.5 mL/min/kg
